Reference: patent US20250179047A1, “5-[7-(3,4-DIHYDRO-1H-ISOQUINOLINE-2-CARBONYL)-1,2,3,4 TETRAHYDROISOQUINOLIN-6-YL]-1H-PYRROLE-3-CARBOXAMIDE DERIVATIVES, PHARMACEUTICAL COMPOSITIONS CONTAINING THEM AND THEIR USES AS PRO-APOPTOTIC AGENTS” (LES LABORATOIRES SERVIER, priority 2022, published 2025)
pKi: −log10 of the molar value.

Tests used:
[1] = target: BCL2 WT (Homo sapiens (Human), UniProt P10415); assay: TR-FRET competitive binding assay, BCL2 WT; settings: Ki determined from IC50, read-out: TR_FRET EKI_Bcl2 WT
Description: (§1) The relative binding potency of each compound was determined in a competitive binding assay using time resolved-fluorescence resonance energy transfer (TR-FRET). The method utilised a fluorescein labelled peptide derived from PUMA (5Flu-Ahx-[…]-NH2 wherein Ahx means 6-hexanoic acid monomer and the amino acid sequence is referred to as SEQ ID:01) which binds to a terbium labelled BCL2 or BCLXL protein. The degree of binding or corresponding compound inhibition can be quantified by the TR-FRET signal between the terbium donor and fluorescein acceptor.
(§2) The human BCL2_wild-type (also named BCL2_wt), BCL2_G101V mutant and BCLXL_wild-type were E. coli expressed as a N-terminal Halo-fusion proteins and singly labelled with Terbium on the Halo protein to afford the following amino acid sequences:
(§3) wherein the BCL2(1-207) sequence corresponds to UniProtKB® primary accession number P10415 and the BCLXL(2-196) sequence corresponds to UniProtKB® primary accession number Q07817-1.
(§4) The assay was performed in a 40 μL volume in white 384-standard well plates (Corning #3574). An 11-point serial dilution of each compound was prepared in DMSO and transferred directly to plate followed by addition of fluorescein labelled peptide and lastly protein. Final assay conditions were 0.5 nM BCL2_wt, BCL2_G101V, BCL2_D103Y, BCL2_F104I, BCL2_D111A or BCLXL_wt, 2 or 20 nM fluorescein labelled peptide, 50 mM Hepes pH 7.5, 150 mM NaCl, 0.5 mM TCEP (Tris(2-carboxyethyl)phosphine), 0.05% Tween 20, 5% DMSO. The mixture was incubated for 2 hours at 23° C.
(§5) TR-FRET measurements were performed on a Biotek Synergy Neo plate reader. TR-FRET was measured by excitation of the Terbium-donor at 340 nm and subsequent (delay time 100 μs) measurement of terbium and fluorescein emission at 495 nm and 520 nm, respectively, over a collection time of 300 μs. The TR-FRET signal was calculated as the emission-ratio at 520 nm over 495 nm.
(§6) The TR-FRET ratio readout for test compounds was normalized against 0% inhibition controls wells and 100% inhibition control wells. Test compound potency (IC50) was estimated by nonlinear regression using the sigmoidal dose-response (variable slope) using Xlfit 4 (IDBS, Guildford, Surrey, UK, model 205). Were the IC50 could not be determined the % inhibition at the highest tested concentration is given.
(§7) y=(A+((B−A)/(1+((C/x)^D))))
(§8) where y is the normalized TR-TRET ratio measurement for a given concentration of test compound, x is the concentration of test compound, A is the estimated efficacy (% inhibition) at infinite compound dilution, and B is the maximal efficacy (% inhibition). C is the IC50 value and D is the Hill slope coefficient.
(§9) The K1 values were determined from the IC50 values according to Cer et al, Nucleic Acids Res, 2009, July 1; 37 (WebServer issue): W441-W445.

[2] = target: BCL2 G101V (Homo sapiens, UniProt P10415, G101V); assay: TR-FRET competitive binding assay, BCL2 G101V; settings: BCL2 G101V; Ki determined from IC50; read-out: TR_FRET EKI_Bcl2 G101V
Description: as §1, §2, §3, §4, §5, §6, §7, §8, §9

[3] = system: BCL2 G101V; assay: TR-FRET competitive binding assay, BCL2 G101V; parameters: species or system human; settings: ratio Ki BCL2 G101V / Ki BCL2 WT
Description: as §1, §2, §3, §4, §5, §6, §7, §8, §9

[4] = target: BCL2 D103Y (Homo sapiens, UniProt P10415, D103Y); assay: TR-FRET competitive binding assay, BCL2 D103Y; settings: Ki determined from IC50, read-out: TR_FRET EKI_Bcl2 D103Y
Description: as §1, §2, §3, §4, §5, §6, §7, §8, §9

[5] = target: BCLXL WT (Homo sapiens (Human), UniProt Q07817); assay: TR-FRET competitive binding assay, BCLXL WT; settings: for pKi: BCLXL WT, Ki determined from IC50, read-out: TR_FRET EKI BclxL; for TR_FRET EKI BCLxL/WT selectivty ratio: ratio Ki BCLxL / Ki BCL2 WT
Sequence of BCLXL WT (Q07817 other isoform, or with tags, fused parts or gaps): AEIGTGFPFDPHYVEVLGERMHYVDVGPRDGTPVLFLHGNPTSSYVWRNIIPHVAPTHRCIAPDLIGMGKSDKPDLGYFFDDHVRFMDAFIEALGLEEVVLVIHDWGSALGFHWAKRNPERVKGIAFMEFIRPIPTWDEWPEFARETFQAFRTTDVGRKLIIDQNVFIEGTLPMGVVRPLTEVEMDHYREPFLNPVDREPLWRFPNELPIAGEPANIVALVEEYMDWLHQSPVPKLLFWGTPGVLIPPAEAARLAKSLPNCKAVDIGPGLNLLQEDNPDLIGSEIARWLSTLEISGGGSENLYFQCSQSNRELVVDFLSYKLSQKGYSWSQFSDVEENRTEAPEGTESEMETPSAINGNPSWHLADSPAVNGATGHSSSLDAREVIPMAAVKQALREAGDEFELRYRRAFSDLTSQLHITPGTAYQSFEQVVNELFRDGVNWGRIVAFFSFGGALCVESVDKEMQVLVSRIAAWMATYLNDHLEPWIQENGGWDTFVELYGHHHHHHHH
Description: as §1, §2, §3, §4, §5, §6, §7, §8, §9

[6] = system: KMS-12-PE Bcl-2 WT; assay: In vitro cytotoxicity CellTiter-Glo 48 h, KMS-12-PE Bcl-2 WT; assay type: cell-based; settings: Homo sapiens, KMS-12-PE, C50 = concentration needed to reach 50% of the cellular viability
Description: (§10) KMS-12-PE (ACC 606) were purchased from the Leibniz-Institute DSMZ (Braunschweig, Germany) and were grown at 37° C. in a humidified atmosphere with […] in media recommended by the suppliers. Lentiviral particles containing Bcl-2 wild type (also named “Bcl2 WT”) and Bcl-2 mutated on G101V (also named “Bcl2 G101V”) were cloned into pcLV-CMV-DEST-IRES-TagRFP. Lentiviral particles (1×106) were mixed with Polybrene at 8 µg/ml and transduced by spinoculation for 1 h at 32° C. and incubated overnight. After 8 days, TagRFP positive-cells were sorted by FACS. BCL2 expression was monitored by immunoblotting using anti-Flag and anti-BCL2 antibodies.
(§11) Cellular viability was monitored with the cell viability assay (CellTiter-Glo®) on KMS-12-PE WT and G101V cell lines. The CellTiter-Glo® (CTG) Luminescent Cell Viability Assay (from Promega) is a homogeneous method to determine the number of viable cells in culture based on quantitation of the ATP present, which signals the presence of metabolically active cells.
(§12) Dose response of compounds are performed with 10 mM stock solutions (DMSO), 11-points curve, in a 384-well compound plate. The assay plate is prepared by stamping 40 nL from compound dilution plate of all different concentrations (e.g. 10 mM to have final […] assay test) into a cell culture microplate, using Echo acoustic liquid handling (Labcyte, Beckman). 40 μl of cell solution is added and cells are incubated with compounds for 48 h at 37° C., 5% CO2. CTG was added to the cells (according to the manufacturer instructions) and luminescence intensity was recorded using the Pherastar plate reader (BMG).
(§13) This assay provides in vitro cellular potency of the tested Bcl-2 inhibitors, measuring the C50, defined as the concentration needed to reach 50% of the cellular viability.

[7] = system: KMS-12-PE Bcl-2 G101V; assay: In vitro cytotoxicity CellTiter-Glo 48 h, KMS-12-PE Bcl-2 G101V; assay type: cell-based; settings: for Ratio (G101V/WT): C50 KMS-12-PE Bcl-2 G101V over C50 KMS-12-PE Bcl-2 WT; for IC50: Homo sapiens, KMS-12-PE, 48 h, CellTiter-Glo, C50 = concentration needed to reach 50% of the cellular viability
Description: as §10, §11, §12, §13

Row | SMILES | pKi [1] | pKi [2] | TR_FRET EKI G101V/WT selectivty ratio [3] | pKi [4] | pKi [5] | TR_FRET EKI BCLxL/WT selectivty ratio [5] | IC50 [6] [µM] | Ratio (G101V/WT) [7] | IC50 [7] [µM]
1 | Cc1c(N(C(=O)c2cc(-c3cc4c(cc3C(=O)N3Cc5ccccc5C[C@H]3C)CN(C(=O)C(F)(F)c3ccc(N5CCN(C)CC5)cc3)CC4)n(C)c2C)c2ccc(O)cc2)cc(C#N)n1C [Example 26, N-(5-cyano-1,2-dimethylpyrrol-3-yl)-5-(2-{2,2-difluoro-2-[4-(4-methylpiperazin-1-yl)phenyl]acetyl}-7-{[(3R)-3-methyl-3,4-dihydro-1H-isoquinolin-2-yl]carbonyl}-3,4-dihydro-1H-isoquinolin-6-yl)-N-(4-hydroxyphenyl)-1,2-dimethylpyrrole-3-carboxamide] | 8.96 | 8.28 | 4.8 | 9.08 | 7.63 | 21.1 | – | – | –
2 | COCc1ccc(CC(=O)N2CCc3cc(-c4cc(C(=O)N(c5ccc(O)cc5)c5cc(C#N)n(C)c5C)c(C)n4C)c(C(=O)N4Cc5ccccc5C[C@H]4C)cc3C2)cc1 [Example 87, N-(5-cyano-1,2-dimethyl-1H-pyrrol-3-yl)-N-(4-hydroxyphenyl)-5-(2-{2-[4-(methoxymethyl)phenyl]acetyl}-7-[(3R)-3-methyl-1,2,3,4-tetrahydroisoquinoline-2-carbonyl]-1,2,3,4-tetrahydroisoquinolin-6-yl)-1,2-dimethyl-1H-pyrrole-3-carboxamide] | 9.92 | 9.30 | – | 9.34 | 8.89 | 10.8 | 0.0073 | 5.43 | 0.0394
3 | Cc1c(N(C(=O)c2cc(-c3cc4c(cc3C(=O)N3Cc5ccccc5C[C@H]3CN3CCC[C@@H]3C)CN(C(=O)Cc3ccc(OCCN5CCOCC5)cc3F)CC4)n(C)c2C)c2ccc(O)cc2)cc(C#N)n1C [Example 173, N-(5-cyano-1,2-dimethylpyrrol-3-yl)-5-[2-(2-{2-fluoro-4-[2-(morpholin-4-yl)ethoxy]phenyl}acetyl)-7-{[(3S)-3-{[(2S)-2-methylpyrrolidin-1-yl]methyl}-3,4-dihydro-1H-isoquinolin-2-yl]carbonyl}-3,4-dihydro-1H-isoquinolin-6-yl]-N-(4-hydroxyphenyl)-1,2-dimethylpyrrole-3-carboxamide] | 10.52 | 9.52 | – | 9.92 | 8.40 | 133.3 | 0.0084 | 5.5095 | 0.0465
4 | Cc1c(C(=O)N(c2ccc(O)cc2)c2cnn(C(F)F)c2)cc(-c2cc3c(cc2C(=O)N2Cc4ccccc4C[C@H]2C)CN(C(=O)Cc2ccc(OCCN4CCOCC4)cc2F)CC3)n1C [Example 186, N-[1-(difluoromethyl)pyrazol-4-yl]-5-[2-[2-[2-fluoro-4-(2-morpholinoethoxy)phenyl]acetyl]-7-[(3R)-3-methyl-3,4-dihydro-1H-isoquinoline-2-carbonyl]-3,4-dihydro-1H-isoquinolin-6-yl]-N-(4-hydroxyphenyl)-1,2-dimethyl-pyrrole-3-carboxamide] | 11.00 | 9.70 | – | 10.40 | 8.28 | 410.0 | 0.0047 | – | –
5 | COc1ncc(N(C(=O)c2cc(-c3cc4c(cc3C(=O)N3Cc5ccccc5C[C@H]3C)CN(C(=O)Cc3cccc(N5CC6(CN(C)C6)C5)c3)CC4)n(C)c2C)c2ccccc2)cc1F [Example 198, N-(5-fluoro-6-methoxy-3-pyridyl)-1,2-dimethyl-5-[2-[2-[3-(6-methyl-2,6-diazaspiro[3.3]heptan-2-yl)phenyl]acetyl]-7-[(3R)-3-methyl-3,4-dihydro-1H-isoquinoline-2-carbonyl]-3,4-dihydro-1H-isoquinolin-6-yl]-N-phenyl-pyrrole-3-carboxamide] | 11.00 | 8.85 | – | 10.15 | 9.22 | 58.6 | 0.0349 | – | –
6 | Cc1c(C(=O)N(c2ccccc2)c2cnn(C(F)F)c2)cc(-c2cc3c(cc2C(=O)N2Cc4ccccc4C[C@H]2C)CN(C(=O)Cc2ccc(OCCN(C)C)cc2)CC3)n1C [Example 199, N-[1-(difluoromethyl)pyrazol-4-yl]-5-[2-[2-[4-[2-(dimethylamino)ethoxy]phenyl]acetyl]-7-[(3R)-3-methyl-3,4-dihydro-1H-isoquinoline-2-carbonyl]-3,4-dihydro-1H-isoquinolin-6-yl]-1,2-dimethyl-N-phenyl-pyrrole-3-carboxamide] | 10.10 | 8.34 | – | 9.72 | 8.06 | 116.3 | 0.0244 | – | –
7 | COc1ncc(N(C(=O)c2cc(-c3cc4c(cc3C(=O)N3Cc5ccccc5C[C@H]3C)CN(C(=O)Cc3ccc(OCCN5CCOCC5)cc3)CC4)n(C)c2C)c2ccccc2)cc1C#N [Example 201, N-(5-cyano-6-methoxy-3-pyridyl)-1,2-dimethyl-5-[7-[(3R)-3-methyl-3,4-dihydro-1H-isoquinoline-2-carbonyl]-2-[2-[4-(2-morpholinoethoxy)phenyl]acetyl]-3,4-dihydro-1H-isoquinolin-6-yl]-N-phenyl-pyrrole-3-carboxamide] | 10.30 | 8.92 | – | 10.05 | 7.79 | 322.5 | 0.0394 | – | –
8 | Cc1c(N(C(=O)c2cc(-c3cc4c(cc3C(=O)N3Cc5ccccc5C[C@H]3C)CN(C(=O)Cc3cccc(N5CCCN(C)CC5)c3)CC4)n(C)c2C)c2ccc(O)cc2)cc(C#N)n1C [Example 231] | – | – | – | – | – | – | 0.0391 | – | –
9 | Cc1c(N(C(=O)c2cc(-c3cc4c(cc3C(=O)N3Cc5ccccc5C[C@H]3C)CN(C(=O)Cc3ccc(OCCC5CCN(C)CC5)nc3)CC4)n(C)c2C)c2ccc(O)cc2)cc(C#N)n1C [Example 232] | – | – | – | – | – | – | 0.0328 | 2.0 | 0.0657
